The test system of the test is IL-1β release, THP-1 cells. Kind of test: IL-1β release assay in differentiated THP-1 cells stimulated with BzATP (Example 9). The class given is cell-based. Conditions: Homo sapiens; for inhibition at 0.3 µM: 0.3 μM compound ("+" symbols), differentiated THP-1 cells, 250 uM BzATP, read-out: IL-1β% Inhib. @ 0.3 or 0.1 μM; for IC50: THP-1 cells, BzATP 250 uM, four parameter logistic fit. How it is done:
THP-1 cells (ATCC Cat # 285-IF-100) are plated in 96 well plates at a concentration of 200,000 cells per well and allowed to differentiate in RPMI-1640 media (ATCC Cat # 30-2001) containing 10% FBS, 100 IU/mL penicillin, 100 ug/mL streptomycin, 100 ng/mL LPS and 100 ng/mL IFN-γ for 16 hours. Following differentiation, the cells are treated for an additional 2 hours in RPMI-1640 media containing 100 IU/mL penicillin, 100 ug/mL streptomycin and fresh LPS at 100 ng/mL. The cells are then pretreated for 30 minutes with the compound of interest at the appropriate concentration in RPMI media containing 100 IU/mL penicillin, 100 ug/mL streptomycin. Following the pretreatment 2′,3′-O-(4-benzoylbenzoyl)-adenosine 5′-triphosphate (Sigma Aldrich Cat # B6396) is added to a final concentration of 250 uM and the cells are incubated for an additional 45 minutes. 30 uL of cell supernatant is then collected and IL-1β levels determined via ELISA (R&D systems Cat. # HSLB50) according to manufacturer's recommendations using the Tecan Safire plate reader. Background adjusted IL-1β levels of drug treated and non-treated cells are used to calculate the percent inhibition.
The following compounds have been or can be prepared according to the synthetic methods described above. For the purpose of Table 1 below, activity of each compound, which can be determined using the IL-1β assay method described in Example 9, is expressed as follows: […]
The compounds set forth in Table 1 were tested for activity in a cellular model as described herein. Specifically, cells were pretreated with differing amounts of the compound under test and released IL-1β determined as in Example 9, above. Measurements were made and IC50 values, presented in Table 2, below, were determined by fitting the data to a four parameter logistic equation using GraphPad Prism software (GraphPad Software, Inc). The equation may be expressed by the following formula:
Y=Bottom+(Top−Bottom)/(1+10̂((Log EC50−X)*HillSlope))
Where X is the logarithm of concentration, Y is the response and Y starts at Bottom and goes to Top with a sigmoid shape.

Bounds are passed on as bounds.

Consider `C[C@H](NC(=O)OC(C)(C)C)C(=O)N1CCc2c(cccc2NC(=O)Cc2ccc(C(F)(F)F)c(F)c2)C1` [Compound 3048], for which the inhibition at 0.3 µM was in the range of 0 to 25% and half-maximal inhibition (IC50) required 473 nM. As to `CS(=O)(=O)N1CCc2c(ccc(Cl)c2NC(=O)Cc2ccc(C(F)(F)F)cc2)C1` [Compound 3050], the inhibition at 0.3 µM fell in the range of 26 to 50% and the IC50 worked out at 492 nM.

Turning to `O=C(Cc1ccc(C(F)(F)F)c(F)c1)Nc1cccc2c1CCN(C(=O)[C@H]1CCCN1)C2` [Compound 3051], the inhibition at 0.3 µM is not below 76% and the IC50 was 73 nM. For `O=C(Cc1ccc(C(F)(F)F)c(F)c1)Nc1cccc2c1CCN(C(=O)COC1CCNCC1)C2` [Compound 3052], the inhibition at 0.3 µM lay within 0 to 25% and the IC50 stood at 890 nM. The like results for `N#CN1CCc2c(cccc2NC(=O)Cc2ccc(C(F)(F)F)c(F)c2)C1` [Compound 3053, N-(2-Cyano-1,2,3,4-tetrahydro-isoquinolin-5-yl)-2-(3-fluoro-4-trifluoromethyl-phenyl)-acetamide] were, in that order, 0 to 25% and more than 1000 nM. For the molecule `C[C@H](N)C(=O)N1CCc2c(cccc2NC(=O)Cc2ccc(C(F)(F)F)c(F)c2)C1` [Compound 3054], the inhibition at 0.3 µM lay in the range of 0 to 25% and half-maximal inhibition (IC50) was put at 684 nM. With `O=C(Cc1ccc(C(F)(F)F)c(F)c1)Nc1cccc2c1CCN(C(=O)[C@@H]1CCCN1)C2` [Compound 3055], the inhibition at 0.3 µM was 51 to 75% and the IC50 stood at 182 nM. For `N[C@@H](Cc1ccccc1)C(=O)N1CCc2c(cccc2NC(=O)Cc2ccc(C(F)(F)F)c(F)c2)C1` [Compound 3056, N-[2-((S)-2-Amino-3-phenyl-propionyl)-1,2,3,4-tetrahydro-isoquinolin-5-yl]-2-(3-fluoro-4-trifluoromethyl-phenyl)-acetamide], the inhibition at 0.3 µM was not below 76% and the IC50 was determined as 56.3 nM. The like results for `O=C(Cc1ccc(C(F)(F)F)c(F)c1)Nc1cccc2c1CCN(CC(O)CCl)C2` (centres unmarked) [Compound 3057, N-[2-(3-Chloro-2-hydroxy-propyl)-1,2,3,4-tetrahydro-isoquinolin-5-yl]-2-(3-fluoro-4-trifluoromethyl-phenyl)-acetamide] were, in that order, 26 to 50% and 428 nM. The like results for `CCC(O)CN1CCc2c(cccc2NC(=O)Cc2ccc(C(F)(F)F)c(F)c2)C1` (centres unmarked) [Compound 3058, 2-(3-Fluoro-4-trifluoromethyl-phenyl)-N-[2-(2-hydroxy-butyl)-1,2,3,4-tetrahydro-isoquinolin-5-yl]-acetamide] were, in that order, 26 to 50% and 338 nM. With `CC(c1ccc(F)cc1)N1CCc2c(cccc2NC(=O)Cc2ccc(C(F)(F)F)c(F)c2)C1` (centres unmarked) [Compound 3059, N-{2-[1-(4-Fluoro-phenyl)-ethyl]-1,2,3,4-tetrahydro-isoquinolin-5-yl}-2-(3-fluoro-4-trifluoromethyl-phenyl)-acetamide], the inhibition at 0.3 µM is 51 to 75% and half-maximal inhibition (IC50) was put at 256 nM. As for `Cc1ccc2c(c1NC(=O)Cc1ccc(C(F)(F)F)cc1)CCN(C(=O)[C@H]1CCCN1)C2` [Compound 3060, N-[6-Methyl-2-((R)-pyrrolidine-2-carbonyl)-1,2,3,4-tetrahydro-isoquinolin-5-yl]-2-(4-trifluoromethyl-phenyl)-acetamide], the inhibition at 0.3 µM is not below 76% and it took 64.4 nM to reach half-maximal inhibition (IC50). On the same counts, the results for `Cc1ccc2c(c1NC(=O)Cc1ccc(C(F)(F)F)c(F)c1)CCN(C(=O)[C@H]1CCCN1)C2` [Compound 3061, 2-(3-Fluoro-4-trifluoromethyl-phenyl)-N-[6-methyl-2-((R)-pyrrolidine-2-carbonyl)-1,2,3,4-tetrahydro-isoquinolin-5-yl]-acetamide] are not below 76% and 35.1 nM. For `Cc1ccc2c(c1NC(=O)Cc1cccc(C(F)(F)F)c1F)CCN(C(=O)[C@H]1CCCN1)C2` [Compound 3062], the inhibition at 0.3 µM is not below 76% and inhibition was half-maximal at 76.7 nM (IC50).

In the case of `CCCC(O)CN1CCc2c(cccc2NC(=O)Cc2ccc(C(F)(F)F)c(F)c2)C1` (centres unmarked) [Compound 3063], the inhibition at 0.3 µM lay in the range of 26 to 50% and the midpoint of inhibition, the IC50, lay at 673 nM. The like results for `O=C(Cc1ccc(C(F)(F)F)c(F)c1)Nc1cccc2c1CCN(CC(O)CF)C2` (centres unmarked) [Compound 3064] were, in that order, 0 to 25% and more than 1000 nM.

On to `O=C(Cc1ccc(C(F)(F)F)c(F)c1)Nc1cccc2c1CCN(CC(O)c1ccc(F)cc1)C2` (centres unmarked) [Compound 3065, N-{2-[2-(4-Fluoro-phenyl)-2-hydroxy-ethyl]-1,2,3,4-tetrahydro-isoquinolin-5-yl}-2-(3-fluoro-4-trifluoromethyl-phenyl)-acetamide], for which the inhibition at 0.3 µM was 51 to 75% and the IC50 stood at 206 nM.

For the molecule `O=C(Cc1ccc(C(F)(F)F)c(F)c1)Nc1cccc2c1CCN(CC(O)c1ccc(Cl)cc1)C2` (centres unmarked) [Compound 3066], the inhibition at 0.3 µM lay in the range of 51 to 75% and the IC50 amounted to 219 nM. On to `O=C(Cc1ccc(C(F)(F)F)c(F)c1)Nc1cccc2c1CCN(CC(O)C(O)(c1ccccc1)C(F)(F)F)C2` (centres unmarked) [Compound 3067], for which the inhibition at 0.3 µM was not below 76% and the IC50 is 150 nM. With `O=C(Cc1ccc(C(F)(F)F)c(F)c1)Nc1c(Cl)ccc2c1CCN(C(=O)c1c(Cl)cccc1Cl)C2` [Compound 3068], the inhibition at 0.3 µM lay within 0 to 25%. On to `CC(=O)N1CCc2c(ccc(Cl)c2NC(=O)Cc2ccc(C(F)(F)F)c(F)c2)C1` [Compound 3069], for which the inhibition at 0.3 µM was 0 to 25%.

For the molecule `O=C(Cc1ccc(C(F)(F)F)c(F)c1)Nc1c(Cl)ccc2c1CCN(C(=O)c1ccc(Cl)cc1)C2` [Compound 3073], the inhibition at 0.3 µM fell in the range of 0 to 25%.

On to `Cc1cccc(C(=O)N2CCc3c(ccc(Cl)c3NC(=O)Cc3ccc(C(F)(F)F)c(F)c3)C2)c1` [Compound 3074], for which the inhibition at 0.3 µM was in the range of 26 to 50%. As for `O=C(Cc1ccc(C(F)(F)F)c(F)c1)Nc1c(Cl)ccc2c1CCN(C(=O)CCC1CCCC1)C2` [Compound 3075], the inhibition at 0.3 µM lay in the range of 0 to 25%. `COc1ccc(C(=O)N2CCc3c(ccc(Cl)c3NC(=O)Cc3ccc(C(F)(F)F)c(F)c3)C2)cc1` [Compound 3076]: the inhibition at 0.3 µM lay in the range of 0 to 25%.

As for `O=C(Cc1ccc(C(F)(F)F)c(F)c1)Nc1c(Cl)ccc2c1CCN(C(=O)c1ccc(-c3ccccc3)cc1)C2` [Compound 3077], the inhibition at 0.3 µM fell in the range of 0 to 25%. Same read-out and setting: for `O=C(Cc1ccc(C(F)(F)F)c(F)c1)Nc1c(Cl)ccc2c1CCN(C(=O)c1cc(F)c(F)cc1F)C2` [Compound 3078] the value was 0 to 25%; for `O=C(Cc1ccc(C(F)(F)F)c(F)c1)Nc1c(Cl)ccc2c1CCN(C(=O)c1cccnc1)C2` [Compound 3079], 0 to 25%; for `O=C(Cc1ccc(C(F)(F)F)c(F)c1)Nc1c(Cl)ccc2c1CCN(C(=O)C1CCCC1)C2` [Compound 3080], 51 to 75%. Still for that read-out and setting: next, `COc1ccc(OC)c(CC(=O)N2CCc3c(ccc(Cl)c3NC(=O)Cc3ccc(C(F)(F)F)c(F)c3)C2)c1` [Compound 3081]: 0 to 25%; `O=C(Cc1ccc(C(F)(F)F)c(F)c1)Nc1c(Cl)ccc2c1CCN(C(=O)Cc1ccc(F)cc1)C2` [Compound 3083]: 0 to 25%; `CCCc1ccc(C(=O)N2CCc3c(ccc(Cl)c3NC(=O)Cc3ccc(C(F)(F)F)c(F)c3)C2)cc1` [Compound 3084]: 0 to 25%. For `O=C(Cc1ccc(C(F)(F)F)c(F)c1)Nc1c(Cl)ccc2c1CCN(C(=O)c1ccc(Cl)c(Cl)c1)C2` [Compound 3086], the inhibition at 0.3 µM lay in the range of 0 to 25%. On the same count and under the same terms, next, `COc1cc(OC)cc(C(=O)N2CCc3c(ccc(Cl)c3NC(=O)Cc3ccc(C(F)(F)F)c(F)c3)C2)c1` [Compound 3087]: 0 to 25%; `CC(C)C(=O)N1CCc2c(ccc(Cl)c2NC(=O)Cc2ccc(C(F)(F)F)c(F)c2)C1` [Compound 3088]: 0 to 25%. As to `O=C(Cc1ccc(C(F)(F)F)c(F)c1)Nc1c(Cl)ccc2c1CCN(C(=O)CCc1ccccc1)C2` [Compound 3089], the inhibition at 0.3 µM is 0 to 25%. Still for that read-out and setting: for `COc1cccc(C(=O)N2CCc3c(ccc(Cl)c3NC(=O)Cc3ccc(C(F)(F)F)c(F)c3)C2)c1` [Compound 3090] the value was 0 to 25%; for `O=C(Cc1ccc(C(F)(F)F)c(F)c1)Nc1c(Cl)ccc2c1CCN(C(=O)c1ccc(F)cc1)C2` [Compound 3091], 0 to 25%. Consider `CC(C)(C)C(=O)N1CCc2c(ccc(Cl)c2NC(=O)Cc2ccc(C(F)(F)F)c(F)c2)C1` [Compound 3092], for which the inhibition at 0.3 µM was not below 76%. On to `O=C(Cc1ccc(C(F)(F)F)c(F)c1)Nc1c(Cl)ccc2c1CCN(C(=O)c1cccc(Cl)c1)C2` [Compound 3093], for which the inhibition at 0.3 µM is 0 to 25%.

As a reminder, the IC50 is the concentration that inhibits the measured activity by half.

The values above are taken from US20100298285A1, “Biclycloheteroaryl Compounds as P2x7 Modulators and Uses Thereof” (priority 2006, published 2010).
